Results published in the NIST ThermoML archive (doi:10.1021/je901043q).

Test: xn = mol fraction of the nth substance listed
Details: 101 kPa, Liquid

CCCCn1cc[n+](C)c1.N#C[S-] [1-butyl-3-methylimidazolium thiocyanate] + CCCCCCCCO
Details | mass density [kg/m3] | viscosity [mPa·s]
298.15 K, x1 = 0.0874 | 847.17 | 9.062
298.15 K, x1 = 0.1352 | 860.64 | 10.03
298.15 K, x1 = 0.2208 | 884.32 | 12.08
298.15 K, x1 = 0.3599 | 921.24 | 16.3
298.15 K, x1 = 0.4693 | 949.07 | 20.44
298.15 K, x1 = 0.5739 | 974.82 | 24.86
298.15 K, x1 = 0.675 | 998.86 | 29.44
298.15 K, x1 = 0.7673 | 1020.12 | –
298.15 K, x1 = 0.8721 | 1043.42 | 39.69
298.15 K, x1 = 0.9619 | 1062.27 | 45.09
298.15 K, x1 = 1 | 1069.79 | 51.74
308.15 K, x1 = 0.0874 | 840.37 | 6.504
308.15 K, x1 = 0.1352 | 853.92 | 7.237
308.15 K, x1 = 0.2208 | 877.72 | 8.726
308.15 K, x1 = 0.3599 | 914.82 | 11.7
308.15 K, x1 = 0.4693 | 942.78 | 14.47
308.15 K, x1 = 0.5739 | 968.64 | 17.39
308.15 K, x1 = 0.675 | 992.79 | 20.38
308.15 K, x1 = 0.7673 | 1014.13 | –
308.15 K, x1 = 0.8721 | 1037.47 | 26.63
308.15 K, x1 = 0.9619 | 1056.33 | 29.99
308.15 K, x1 = 1 | 1063.89 | 34.87
318.15 K, x1 = 0.0874 | 833.52 | 4.842
318.15 K, x1 = 0.1352 | 847.19 | 5.396
318.15 K, x1 = 0.2208 | 871.11 | 6.516
318.15 K, x1 = 0.3599 | 908.42 | 8.719
318.15 K, x1 = 0.4693 | 936.52 | 10.67
318.15 K, x1 = 0.5739 | 962.5 | 12.72
318.15 K, x1 = 0.675 | 986.77 | 14.79
318.15 K, x1 = 0.7673 | 1008.17 | –
318.15 K, x1 = 0.8721 | 1031.58 | 18.95
318.15 K, x1 = 0.9619 | 1050.45 | 21.14
318.15 K, x1 = 1 | 1058.02 | 24.19
328.15 K, x1 = 0.0874 | 826.65 | 3.691
328.15 K, x1 = 0.1352 | 840.37 | 4.158
328.15 K, x1 = 0.2208 | 864.48 | 5.003
328.15 K, x1 = 0.3599 | 902.01 | 6.654
328.15 K, x1 = 0.4693 | 930.28 | 8.141
328.15 K, x1 = 0.5739 | 956.41 | 9.644
328.15 K, x1 = 0.675 | 980.77 | 11.14
328.15 K, x1 = 0.7673 | 1002.28 | –
328.15 K, x1 = 0.8721 | 1025.72 | 14.06
328.15 K, x1 = 0.9619 | 1044.62 | 15.59
328.15 K, x1 = 1 | 1052.19 | 16.7
338.15 K, x1 = 0.0874 | 819.63 | 2.884
338.15 K, x1 = 0.1352 | 833.53 | 3.272
338.15 K, x1 = 0.2208 | 857.82 | 3.928
338.15 K, x1 = 0.3599 | 895.62 | 5.233
338.15 K, x1 = 0.4693 | 924.05 | 6.379
338.15 K, x1 = 0.5739 | 950.33 | 7.509
338.15 K, x1 = 0.675 | 974.82 | 8.648
338.15 K, x1 = 0.7673 | 996.4 | –
338.15 K, x1 = 0.8721 | 1019.88 | 10.82
338.15 K, x1 = 0.9619 | 1038.82 | 11.94
338.15 K, x1 = 1 | 1046.43 | 12.73
348.15 K, x1 = 0.0874 | 812.55 | 2.306
348.15 K, x1 = 0.1352 | 826.58 | 2.633
348.15 K, x1 = 0.2208 | 851.13 | 3.171
348.15 K, x1 = 0.3599 | 889.21 | 4.233
348.15 K, x1 = 0.4693 | 917.85 | 5.1
348.15 K, x1 = 0.5739 | 944.27 | 5.987
348.15 K, x1 = 0.675 | 968.89 | 6.874
348.15 K, x1 = 0.7673 | 990.57 | –
348.15 K, x1 = 0.8721 | 1014.14 | 8.592
348.15 K, x1 = 0.9619 | 1033.09 | 9.462
348.15 K, x1 = 1 | 1040.7 | 9.98
